Data from ChEMBL document CHEMBL3885861, “Open TG-GATES”.

Species: Rattus norvegicus
Assay: Open TG-GATES - Regimen: Single
Assay type: toxicity, organism-based, Sprague-Dawley
Set-up: regimen Single, gender Male, age 6 weeks
Conditions: in vivo, po, 0 mg/kg, route gavage, dose level Control; for APTT / Bas / Eos / Fbg / Hb / Ht / Lym / MCHC / MCV / Mono / Neu / PT / Plat / RBC / Ret / WBC: tissue Blood; for KIDNEY_L / KIDNEY_R / KIDNEY_TOTAL: tissue Kidney; for LIVER: tissue Liver; for ALP / ALT / AST / BUN / CRE / Ca / Cl / DBIL / GLC / IP / K / LDH / Na / PL / RALB / TBIL / TC / TG / TP / gamma-GTP: tissue Plasma

`C1CCC(C(CC2CCCCN2)C2CCCCC2)CC1` (configuration not stated) [PERHEXILINE] showed a TERMINAL_BW (9 h) of 206.4 g, an APTT (9 h) of 21.8 s and a Bas (9 h) of 0%. It also gave an Eos (9 h) of 0.6%, a Fbg (9 h) of 319 mg/dL and a Hb (9 h) of 13.2 g/dL. The Ht (9 h) was 39.2%, the Lym (9 h) was 75.8% and the MCHC (9 h) was 33.7%. The MCV (9 h) was 64.6 fL, the Mono (9 h) was 1.8% and the Neu (9 h) was 20.4%. The PT (9 h) was 15.6 s, the Plat (9 h) was 131 x10_4/uL and the RBC (9 h) was 606.6 x10_4/ul. For the same compound, the Ret (9 h) was 7.3%, the WBC (9 h) was 89.6 x10_2/uL and the KIDNEY_L (9 h) was 0.9 g. It also gave a KIDNEY_R (9 h) of 1 g, a KIDNEY_TOTAL (9 h) of 1.9 g and an LIVER (9 h) of 9.2 g. For the same compound, the ALP (9 h) was 1422.6 IU/L, the ALT (9 h) was 33.8 IU/L and the AST (9 h) was 62.2 IU/L. The BUN (9 h) was 11.4 mg/dL, the CRE (9 h) was 0.1 mg/dL and the Ca (9 h) was 10.9 mg/dL. The Cl (9 h) was 105.6 meq/L, the DBIL (9 h) was 0 mg/dL and the GLC (9 h) was 193.8 mg/dL. It also gave an IP (9 h) of 9.4 mg/dL, a K (9 h) of 3.9 meq/L and an LDH (9 h) of 196.4 IU/L. The Na (9 h) was 139.6 meq/L, the PL (9 h) was 135.6 mg/dL and the RALB (9 h) was 3 g/dL. For the same compound, the TBIL (9 h) was 0.012 mg/dL, the TC (9 h) was 76.4 mg/dL and the TG (9 h) was 70 mg/dL. It also gave a TP (9 h) of 5.6 g/dL, a gamma-GTP (9 h) of 0.8 IU/L and a TERMINAL_BW (24 h) of 228.6 g. It also gave an APTT (24 h) of 20.7 s, a Bas (24 h) of 0% and an Eos (24 h) of 0.8%. For the same compound, the Fbg (24 h) was 315.6 mg/dL, the Hb (24 h) was 13.1 g/dL and the Ht (24 h) was 39.4%. It also gave a Lym (24 h) of 74.8%, an MCHC (24 h) of 33.3% and an MCV (24 h) of 65.2 fL. For the same compound, the Mono (24 h) was 2.4%, the Neu (24 h) was 21.2% and the PT (24 h) was 16 s. It also gave a Plat (24 h) of 120.5 x10_4/uL, an RBC (24 h) of 604.2 x10_4/ul and a Ret (24 h) of 7.2%. It also gave a WBC (24 h) of 89.3 x10_2/uL, a KIDNEY_L (24 h) of 1 g and a KIDNEY_R (24 h) of 1 g. The KIDNEY_TOTAL (24 h) was 2.1 g, the LIVER (24 h) was 11.2 g and the ALP (24 h) was 1688.8 IU/L. For the same compound, the ALT (24 h) was 42.6 IU/L, the AST (24 h) was 66.4 IU/L and the BUN (24 h) was 16.8 mg/dL. The CRE (24 h) was 0.1 mg/dL, the Ca (24 h) was 11 mg/dL and the Cl (24 h) was 105.4 meq/L. The DBIL (24 h) was 0 mg/dL, the GLC (24 h) was 196.6 mg/dL and the IP (24 h) was 7.1 mg/dL. The K (24 h) was 4.3 meq/L, the LDH (24 h) was 177.6 IU/L and the Na (24 h) was 141.6 meq/L. The PL (24 h) was 154.2 mg/dL, the RALB (24 h) was 3.2 g/dL and the TBIL (24 h) was 0.014 mg/dL. The TC (24 h) was 76.8 mg/dL, the TG (24 h) was 149.4 mg/dL and the TP (24 h) was 5.7 g/dL. The gamma-GTP (24 h) was 1 IU/L.
